Legend:
Assay type in all cases: in vivo
sorghum [1] = experiment: Herbicidal activity test against upland field weeds (foliar treatment test); design: key to Foliar treatment herbicidal activity, Sorghum: 0 (no control); 100 (complete control); settings: scale 0-100
In short: (§1)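 Weeds were raised from seed or rootstocks in horticultural soil in a greenhouse (30±5° C., 14/10 h light/dark), then foliage was hand-sprayed with compound at 50 or 75 g a.i./ha in 50% acetone with 0.1% Tween-20. Control was scored visually 0–100 against untreated plants after 14 days, or 21 if needed.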

barnyard grass [2] = experiment: as above; settings: Echinochloa crus-galli, scale 0-100
In short: as §1

quack grass [3] = experiment: as above; design: key to Foliar treatment herbicidal activity, quack grass: 0 (no control); 100 (complete control); settings: scale 0-100
In short: as §1

crabgrass [4] = experiment: as above; settings: Digitaria sanguinalis, scale 0-100
In short: as §1

fall panicum [5] = experiment: as above; design: key to Foliar treatment herbicidal activity, Fall panicum: 0 (no control); 100 (complete control); settings: scale 0-100
In short: as §1

black nightshade [6] = experiment: as above; settings: Solanum nigrum, scale 0-100
In short: as §1

indian jointvetch [7] = experiment: as above; settings: scale 0-100
In short: as §1

velvetleaf [8] = experiment: as above; settings: Abutilon theophrasti, scale 0-100, read-out: Foliar treatment herbicidal activity, velvet leaf
In short: as §1

cocklebur [9] = experiment: as above; settings: Xanthium strumarium, scale 0-100
In short: as §1

bindweed [10] = experiment: as above; settings: scale 0-100
In short: as §1

sorghum [11] = experiment: Herbicidal activity test against upland field weeds (soil treatment test); design: key to Soil treatment herbicidal activity, Sorghum: 0 (no control); 100 (complete control); settings: scale 0 (no control) to 100 (complete control)
In short: (§2)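 Pre-emergence test: seeds or rootstocks were sown in fertilized sandy loam, and the next day the soil surface was sprayed with compound at 50 or 75 g a.i./ha in 50% acetone/0.1% Tween-20. Plants were grown in a greenhouse (30±5 °C, 14/10 h light/dark), then visually scored 0–100 against untreated at 14 d (21 d if needed).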

barnyard grass [12] = experiment: as above; design: key to Soil treatment herbicidal activity, barnyard grass: 0 (no control); 100 (complete control); settings: scale 0 (no control) to 100 (complete control)
In short: as §2

quack grass [13] = experiment: as above; design: key to Soil treatment herbicidal activity, quack grass: 0 (no control); 100 (complete control); settings: scale 0 (no control) to 100 (complete control)
In short: as §2

crabgrass [14] = experiment: as above; design: key to Soil treatment herbicidal activity, Crabgrass: 0 (no control); 100 (complete control); settings: scale 0 (no control) to 100 (complete control)
In short: as §2

fall panicum [15] = experiment: as above; settings: Panicum dichotomiflorum, scale 0 (no control) to 100 (complete control)
In short: as §2

black nightshade [16] = experiment: as above; design: key to Soil treatment herbicidal activity, black nightshade: 0 (no control); 100 (complete control); settings: scale 0 (no control) to 100 (complete control)
In short: as §2

indian jointvetch [17] = experiment: as above; design: key to Soil treatment herbicidal activity, Indian jointvetch: 0 (no control); 100 (complete control); settings: scale 0 (no control) to 100 (complete control)
In short: as §2

velvetleaf [18] = experiment: as above; design: key to Soil treatment herbicidal activity, velvet leaf: 0 (no control); 100 (complete control); settings: scale 0 (no control) to 100 (complete control)
In short: as §2

cocklebur [19] = experiment: as above; design: key to Soil treatment herbicidal activity, Cocklebur: 0 (no control); 100 (complete control); settings: scale 0 (no control) to 100 (complete control)
Protocol: Experimental Example 2: Herbicidal Activity Test Against Upland Field Weeds (Soil Treatment Test) Soil treatment was performed as follows: After filling a square plastic pot having a surface area of 350 cm^2 with sandy loam mixed with 1 g per pot (350 cm^2) of horticultural mixed fertilizer (N:P:K=11:10:11), seeds (10˜15 grains) or rootstocks (2 pieces) of 5 kinds of grassy weeds of sorghum, barnyard grass, quack grass, crabgrass, fall panicum, and 5 kinds of broadleaf weeds of black nightshade, indian jointvetch, velvetleaf, cocklebur, bindweed, which had been stored in a low temperature (6° C.), were sown. The day after sowing, test compound solutions were made by diluting with a preparation solution (including 50% acetone, 0.1% Tween-20) so that the final treatment amount of the test compounds was 50 or 75 g a.i./ha. The prepared test compound solution was used for treating soil surface by hand-spraying 14 mL per pot in a fume hood. After the treatment, it was managed under the same greenhouse conditions (average temperature 30±5° C., light/dark=14/10 hours), and after 14 days (after 21 days if necessary), the external symptoms and efficacy were investigated according to the scale of 0 (no control) to 100 (complete control). The results of Table 8 were obtained by evaluating weed control value to the untreated control by conducting visual assessment.

bindweed [20] = experiment: as above; design: key to Soil treatment herbicidal activity, Bindweed: 0 (no control); 100 (complete control); settings: scale 0 (no control) to 100 (complete control)
In short: as §2

CN(CCc1nnn(C)n1)c1nc(C(F)(F)F)ccc1C(=O)Nc1nnnn1C [Compound No. 2-36, 2-(methyl(2-(2-methyl-2H-tetrazol-5-yl)ethyl)amino)-N-(1-methyl-1H-tetrazol-5-yl)-6-(trifluoromethyl)nicotinamide]
plant injury at 75 g/ha (sorghum [1]; Sorghum, 75 g ai/ha): 20% | pest or weed control at 75 g/ha (barnyard grass [2]; 75 g ai/ha): 90% | Foliar treatment herbicidal activity, quack grass (quack grass [3]; 75 g ai/ha): 0 | pest or weed control at 75 g/ha (crabgrass [4]; 75 g ai/ha): 60% | pest or weed control at 75 g/ha (fall panicum [5]; Panicum dichotomiflorum, 75 g ai/ha): 50% | pest or weed control at 75 g/ha (black nightshade [6]; 75 g ai/ha): 95% | pest or weed control at 75 g/ha (indian jointvetch [7]; 75 g ai/ha): 60% | pest or weed control at 75 g/ha (velvetleaf [8]; 75 g ai/ha): 50% | pest or weed control at 75 g/ha (cocklebur [9]; 75 g ai/ha): 70% | pest or weed control at 75 g/ha (bindweed [10]; 75 g ai/ha): 70% | plant injury at 75 g/ha (sorghum [11]; Sorghum, 75 g ai/ha): 20% | Soil treatment herbicidal activity, barnyard grass (barnyard grass [12]; 75 g ai/ha): 100 | pest or weed control at 75 g/ha (quack grass [13]; 75 g ai/ha): 10% | Soil treatment herbicidal activity, Crabgrass (crabgrass [14]; 75 g ai/ha): 100 | pest or weed control at 75 g/ha (fall panicum [15]; 75 g ai/ha): 98% | Soil treatment herbicidal activity, black nightshade (black nightshade [16]; 75 g ai/ha): 100 | Soil treatment herbicidal activity, Indian jointvetch (indian jointvetch [17]; 75 g ai/ha): 100 | Soil treatment herbicidal activity, velvet leaf (velvetleaf [18]; 75 g ai/ha): 100 | pest or weed control at 75 g/ha (cocklebur [19]; Xanthium strumarium, 75 g ai/ha): 90% | pest or weed control at 75 g/ha (bindweed [20]; 75 g ai/ha): 70%

C#CCN(Cc1nnn(C)n1)c1nc(C(F)(F)F)ccc1C(=O)Nc1nnnn1C [Compound No. 2-28, N-(1-methyl-1H-tetrazol-5-yl)-2-(((2-methyl-2H-tetrazol-5-yl)methyl)(prop-2-yn-1-yl)amino)-6-(trifluoromethyl)nicotinamide]
Foliar treatment herbicidal activity, Sorghum (sorghum [1]; 50 g ai/ha): 0 | pest or weed control at 50 g/ha (barnyard grass [2]; 50 g ai/ha): 70% | Foliar treatment herbicidal activity, quack grass (quack grass [3]; 50 g ai/ha): 0 | pest or weed control at 50 g/ha (crabgrass [4]; 50 g ai/ha): 30% | Foliar treatment herbicidal activity, Fall panicum (fall panicum [5]; 50 g ai/ha): 0 | pest or weed control at 50 g/ha (black nightshade [6]; 50 g ai/ha): 90% | pest or weed control at 50 g/ha (indian jointvetch [7]; 50 g ai/ha): 40% | pest or weed control at 50 g/ha (velvetleaf [8]; 50 g ai/ha): 40% | pest or weed control at 50 g/ha (cocklebur [9]; 50 g ai/ha): 80% | pest or weed control at 50 g/ha (bindweed [10]; 50 g ai/ha): 40% | Soil treatment herbicidal activity, Sorghum (sorghum [11]; 50 g ai/ha): 0 | pest or weed control at 50 g/ha (barnyard grass [12]; Echinochloa crus-galli, 50 g ai/ha): 70% | Soil treatment herbicidal activity, quack grass (quack grass [13]; 50 g ai/ha): 0 | pest or weed control at 50 g/ha (crabgrass [14]; Digitaria sanguinalis, 50 g ai/ha): 90% | pest or weed control at 50 g/ha (fall panicum [15]; 50 g ai/ha): 70% | Soil treatment herbicidal activity, black nightshade (black nightshade [16]; 50 g ai/ha): 100 | pest or weed control at 50 g/ha (indian jointvetch [17]; 50 g ai/ha): 70% | Soil treatment herbicidal activity, velvet leaf (velvetleaf [18]; 50 g ai/ha): 100 | Soil treatment herbicidal activity, Cocklebur (cocklebur [19]; 50 g ai/ha): 0 | Soil treatment herbicidal activity, Bindweed (bindweed [20]; 50 g ai/ha): 0
